In patent publication US20250353859A1, “COMPOUNDS AS CCR6 INHIBITORS” (Hoffmann-La Roche Inc., priority 2023, published 2025):

How the values were obtained:
Assay type in all cases: cell-based
Human CD4+ T cells = test: CD4+ T cells chemotaxis assay towards CCL20; details: CD4+ T cell, 3 h
Excerpt: Human CD4+ T cells were isolated from buffy coats of healthy donors using aCD4+ T Cell Isolation Kit(Miltenyi Biotec 130-096-533). Isolated T cells were stimulated overnight with anti-CD3 and anti-CD28 antibodies (Biolegend 300314/302934) in growth medium (RPMI1640, 10% heat-inactivated FBS, 1× pen/strep (Gibco 15140)). For the chemotaxis assay, Corning Transwell plates were used with a pore size of 5 m (Corning 3388). T cells were counted and diluted to 6*10^6 cells/ml in chemotaxis medium (RPMI1640, 1% BSA, pen/strep). Compounds were four-fold serially diluted in DMSO. Further dilutions were made in chemotaxis medium. Cells were incubated with test compounds for 30 min at 37° C. prior to initiation of the assay (3*10^6 cells/ml). Final DMSO concentration in the assay was 0.2%. Wells of the Transwell plates were filled with 200 μl chemotaxis medium containing 150 ng/ml CCL20 (R&D systems 360-MP). 50 μl of the cell/compound suspension was added to the inserts of the Transwell plates (150,000 cells/insert). The Transwell plates were placed in an incubator at 37° C., 5% CO2 for 3 h. After 3 h, the number of migrated cells was quantified using CellTiter Glo (Promega). Percentage inhibition values were calculated based on the low and high signal obtained with 0.2% DMSO in chemotaxis medium without and with CCL20, respectively. The relative Log IC50 was determined with GraphPad Prism 9 using a four-parameter dose-response model.

human CCR6 [1] = target: T1, human CCR6 (Homo sapiens, UniProt P51684); test: Human CCR6-CRE reporter assay; parameters: The second construct contained the open reading frame of human CCR6 in the pUNO1 backbone; host or cells: 293FT cells (transient transfection with TransIT-293)
T1 sequence (P51684 1-374): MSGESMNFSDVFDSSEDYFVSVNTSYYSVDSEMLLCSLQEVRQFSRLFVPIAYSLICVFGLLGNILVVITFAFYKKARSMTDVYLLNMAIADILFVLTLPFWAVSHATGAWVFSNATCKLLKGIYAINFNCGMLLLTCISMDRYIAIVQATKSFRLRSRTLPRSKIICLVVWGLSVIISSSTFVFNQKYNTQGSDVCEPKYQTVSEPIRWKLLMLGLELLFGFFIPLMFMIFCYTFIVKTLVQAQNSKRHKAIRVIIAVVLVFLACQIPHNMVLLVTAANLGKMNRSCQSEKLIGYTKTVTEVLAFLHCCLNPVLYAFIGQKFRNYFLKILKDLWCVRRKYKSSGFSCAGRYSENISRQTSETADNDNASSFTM
Experimental: 293FT cells were transfected with 2 constructs using TransIT-293 (Mirus). The first construct (pGL4.29, Promega) expressed the luciferase reporter gene luc2P in response to the binding of cAMP-induced CREB to the CREelement in its promoter. The second construct contained the open reading frame of human CCR6 in the pUNO1 backbone under the control of an enhanced CMV promoter(InVivoGen).48 h after transfection, cells were harvested and diluted to 750,000 cells/ml in culture medium (DMEM, 10% FBS, 1× pen/strep(Gibco 15140)). Compounds were 2.5-fold serially diluted in DMSO. Further dilutions were made in assay medium (DMEM, 10% FBS, 1× pen/strep, 6 μM Forskolin, 6 nM CCL20). 4 μl of the compound solution was added to a white MW384 plate, followed by […] of the cell suspension. Final DMSO concentration in the assay was 0.1%. The MW384 plate was placed in an incubator at 37° C., 5% CO2 for 5 h. Luciferase activity was determined by addition of 24 μl of a 2.5× diluted BriteLite luciferase solution(Perkin Elmer), followed by luminescence measurement using a VICTOR Plate reader (Perkin Elmer). […] The relative Log IC50 was determined with GraphPad Prism 9 using a four-parameter dose-response model.

human CCR6 [2] = target: T1, human CCR6; test: CHO-K1 CCR6 chemotaxis assay towards CCL20; details: CHO-K1 cells overexpressing human CCR6; 100 ng/ml CCL20, 4 h; relative Log IC50
Excerpt: Cells overexpressing human CCR6 were used in the chemotaxis assay (DiscoverX, cAMP Hunter™ CHO-K1 CCR6 Gi Cell Line). Growth medium of these cells consisted of DMEM/F12, non-essential Amino acids (1×NEAA, Gibco 11140050), 10% FBS and 1× pen/strep (Gibco 15140). For the chemotaxis assay, Corning Transwell plates were used with a pore size of 8 m (Corning 351164). Cells were harvested using trypsin and diluted to 4*10^6 cells/ml in chemotaxis medium (DMEM, 0.25% BSA, pen/strep). Compounds were four-fold serially diluted in DMSO. Further dilutions were made in chemotaxis medium. Cells were incubated with test compounds for 30 min at 37° C. prior to initiation of the assay (2*10^6 cells/ml). Final DMSO concentration in the assay was 0.2%. Wells of the Transwell plates were filled with 200 μl chemotaxis medium containing 100 ng/ml CCL20 (R&D systems 360-MP). 50 μl of the cell/compound suspension was added to the inserts of the Transwell plates (100,000 cells/insert). The Transwell plates were placed in an incubator at 37° C., 5% CO2 for 4 h. After 4 h, the number of migrated cells was quantified using CellTiter Glo (Promega). Percentage inhibition values were calculated based on the low and high signal obtained with 0.2% DMSO in chemotaxis medium without and with CCL20, respectively. The relative Log IC50 was determined with GraphPad Prism 9 using a four-parameter dose-response model.

[3] = 293FT cells transfected with human CCR6 and CRE-luciferase, Forskolin + CCL20, 5 h, relative Log IC50, read-out: CCR6-CRE reporter (converted)

N#Cc1ccc(-c2ccc(S(=O)(=O)N3CCC(Nc4ccc(OC(F)(F)F)cc4)CC3)cc2)cc1 [Example 1, 4′-[(4-{[4-(trifluoromethoxy)phenyl]Amino}piperidin-1-yl)sulfonyl]-[1,1′-biphenyl]-4-carbonitrile]
IC50 (Human CD4+ T cells): 50.1 nM
IC50 (human CCR6 [1]; [3]): 39.8 nM

CNC(=O)c1cccc(-c2ccc(S(=O)(=O)N3CCC(Nc4ccc(OC(F)(F)F)cc4)CC3)cc2)c1 [Example 4, N-methyl-4′-[(4-{[4-(trifluoromethoxy)phenyl]Amino}piperidin-1-yl)sulfonyl]-[1,1′-biphenyl]-3-carboxamide]
IC50 (Human CD4+ T cells): 20 nM
IC50 (human CCR6 [1]; [3]): 100 nM

Cc1n[nH]c2ccc(-c3ccc(S(=O)(=O)N4CCC(Nc5ccc(OC(F)(F)F)cc5)CC4)cc3)cc12 [Example 6, 1-[4-(3-methyl-1H-indazol-5-yl)benzenesulfonyl]-N-[4-(trifluoromethoxy)phenyl]piperidin-4-amine]
IC50 (Human CD4+ T cells): 50.1 nM
IC50 (human CCR6 [1]; [3]): 126 nM

N#Cc1c[nH]c2ccc(-c3ccc(S(=O)(=O)N4CCC(Nc5ccc(OC(F)(F)F)cc5)CC4)cc3)cc12 [Example 13, 5-{4-[(4-{[4-(trifluoromethoxy)phenyl]Amino}piperidin-1-yl)sulfonyl]phenyl}-1H-indole-3-carbonitrile]
IC50 (Human CD4+ T cells): 10 nM
IC50 (human CCR6 [1]; [3]): 79.4 nM

CC(C)c1cnc2ccc(-c3ccc(S(=N)(=O)[C@H]4CC[C@H](Nc5ccc(SC(F)(F)F)cc5)CC4)cc3)cn12 (stereo partly drawn) [Example 51, {4-[3-(propan-2-yl)imidazo[1,2-a]pyridin-6-yl]phenyl}[trans-4-({4-[(trifluoromethyl)sulfanyl]phenyl}Amino)cyclohexyl](imino)-λ^6-sulfanone]
IC50 (human CCR6 [2]): 794 nM
IC50 (human CCR6 [1]; [3]): 79.4 nM

Cc1cc(-c2ccc(S(=O)(=O)N3CCC(Nc4ccc(OC(F)(F)F)cn4)CC3)cc2)cn2c(C(C)C)cnc12 [Example 55, N-(1-{4-[8-methyl-3-(propan-2-yl)imidazo[1,2-a]pyridin-6-yl]benzenesulfonyl}piperidin-4-yl)-5-(trifluoromethoxy)pyridin-2-amine]
IC50 (human CCR6 [2]): 2 nM
IC50 (human CCR6 [1]; [3]): 79.4 nM

Cc1cc(-c2ccc(S(=O)(=O)N3CCC(Nc4ccc(OC(F)(F)F)cn4)CC3)cc2)cn2c(C(C)C)nnc12 [Example 57, N-(1-{4-[8-methyl-3-(propan-2-yl)-[1,2,4]triazolo[4,3-a]pyridin-6-yl]benzenesulfonyl}piperidin-4-yl)-5-(trifluoromethoxy)pyridin-2-amine]
IC50 (human CCR6 [2]): 7.94 nM
IC50 (human CCR6 [1]; [3]): 39.8 nM

CC(C)c1nnc2cnc(-c3ccc(S(=O)(=O)N4CCC(Nc5ccc(OC(F)(F)F)cn5)CC4)cc3)cn12 [Example 59, N-(1-{4-[3-(propan-2-yl)-[1,2,4]triazolo[4,3-a]pyrazin-6-yl]benzenesulfonyl}piperidin-4-yl)-5-(trifluoromethoxy)pyridin-2-amine]
IC50 (human CCR6 [2]): 7.94 nM
IC50 (human CCR6 [1]; [3]): 63.1 nM

NC(=O)c1cc(-c2ccc(S(=O)(=O)N3CCC(Nc4ccc(SC(F)(F)F)cn4)CC3)cc2)ccn1 [Example 63, 4-(4-{[4-({5-[(trifluoromethyl)sulfanyl]pyridin-2-yl}amino)piperidin-1-yl]sulfonyl}phenyl)pyridine-2-carboxamide]
IC50 (human CCR6 [2]): 15.8 nM
IC50 (human CCR6 [1]; scaffold variant X = S, R1 = CF3, read-out: Activity in human CCR6-CRE reporter assay): 74 nM

CC(C)c1nnc2ccc(-c3ccc(S(=O)(=O)N4CCC(Nc5ccc(SC(F)(F)F)cn5)CC4)cc3)cn12 [Example 65, N-(1-{4-[3-(propan-2-yl)-[1,2,4]triazolo[4,3-a]pyridin-6-yl]benzenesulfonyl}piperidin-4-yl)-5-[(trifluoromethyl)sulfanyl]pyridin-2-amine]
IC50 (Human CD4+ T cells): 5.01 nM
IC50 (human CCR6 [1]; [3]): 25.1 nM

CC(C)c1nnc2cnc(-c3ccc(S(=O)(=O)N4CCC(Nc5ccc(SC(F)(F)F)cn5)CC4)cc3)cn12 [Example 66, N-(1-{4-[3-(propan-2-yl)-[1,2,4]triazolo[4,3-a]pyrazin-6-yl]benzenesulfonyl}piperidin-4-yl)-5-[(trifluoromethyl)sulfanyl]pyridin-2-amine]
IC50 (Human CD4+ T cells): 1.58 nM
IC50 (human CCR6 [1]; [3]): 31.6 nM

Cc1nnc2ccc(-c3ccc(S(=O)(=O)N4CCC(Nc5ccc(SC(F)(F)F)cn5)CC4)cc3)cn12 [Example 67, N-[1-(4-{3-methyl-[1,2,4]triazolo[4,3-a]pyridin-6-yl}benzenesulfonyl)piperidin-4-yl]-5-[(trifluoromethyl)sulfanyl]pyridin-2-amine]
IC50 (Human CD4+ T cells): 12.6 nM
IC50 (human CCR6 [1]; [3]): 39.8 nM

Cc1cc(-c2ccc(S(=O)(=O)N3CCC(Nc4ccc(SC(F)(F)F)cn4)CC3)cc2)cn2c(C(C)C)nnc12 [Example 68, N-(1-{4-[8-methyl-3-(propan-2-yl)-[1,2,4]triazolo[4,3-a]pyridin-6-yl]benzenesulfonyl}piperidin-4-yl)-5-[(trifluoromethyl)sulfanyl]pyridin-2-amine]
IC50 (Human CD4+ T cells): 2 nM
IC50 (human CCR6 [1]; [3]): 63.1 nM

Cc1n[nH]c2ncc(-c3ccc(S(=O)(=O)[C@H]4CC[C@H](Nc5ccc(SC(F)(F)F)cc5)CC4)cc3)cc12 [Example 72, N-[trans-4-(4-{3-methyl-1H-pyrazolo[3,4-b]pyridin-5-yl}benzenesulfonyl)cyclohexyl]-4-[(trifluoromethyl)sulfanyl]aniline]
IC50 (Human CD4+ T cells): 3.98 nM
IC50 (human CCR6 [1]; [3]): 39.8 nM

O=c1[nH]nc2ccc(-c3ccc(S(=O)(=O)N4CCC(Nc5ccc(SC(F)(F)F)cn5)CC4)cc3)cn12 [Example 74, 6-(4-{[4-({5-[(trifluoromethyl)sulfanyl]pyridin-2-yl}amino)piperidin-1-yl]sulfonyl}phenyl)-2H,3H-[1,2,4]triazolo[4,3-a]pyridin-3-one]
IC50 (Human CD4+ T cells): 12.6 nM
IC50 (human CCR6 [1]; [3]): 79.4 nM
